We go through one compound from patent US20240376098A1, “METHODS OF TREATMENT USING BCN057, BCN077 AND ANALOGS” (BCN Biosciences L.L.C., priority 2021, published 2024).

Some results are limits rather than exact numbers.

The subject of data set [1] is c-Jun in non-transformed HEK298 epithelial cells. As to the kind of experiment: c-Jun T 91/93 phosphorylation in non-transformed cells. The format is cell-based. The following applies: data not shown. On the procedure: Phosphorylation at T 91/93 in c-Jun was measured as a function of total c-Jun. Significant phosphorylation at T 91/93 was observed which has been reported to be associated with the activation of c-Jun's pro-apoptotic activity.

Data set [2] deals with Lgr5+ ISCs. The data set can be described thus: Lgr5+ intestinal stem cells in 5FU treated Lgr5-Cre-ERT-GFP mice. The format is in vivo. The following applies: 5FU treated mice receiving BCN057. Here is the method: 5FU is a component of FOLFIRINOX and the active agent metabolized from Capecitabine (Xeloda®). To, examine the effect of BCN057 against chemo induced toxicity in Lgr5+ ISCs, Lgr5-Cre-ERT-GFP mice were pre-treated with 5FU as reported and then subjected to BCN057 treatment.
Stains of GI crypts with green=LGR5+ stem cells. Mice were treated with 5FU and 5FU+BCN057 for 5 days. BCN057 was administered for two extra days after 5FU treatment. Small intestine samples were harvested and stained for LGR5 at 3 days after the last 5FU injection. FIG. 5D is a histogram of the quantitation by % of LGR5+ cells remaining in […] sections at the crypt base showing prevention of 5-FU induced apoptosis in LGR5+ stem cells in GI.

Data set [3] concerns Panc-1 cells. As to the kind of experiment: Time lapse microscope images of pancreatic cancer cells after drug. In kind it is cell-based, human. The conditions noted are these: 10 μM BCN057. Here is the method:
FIG. 2A is a group of images showing pancreatic cancer cell growth after treatment with 10 μM BCN057 at time 0, 15, 30, 60, 120 and 240 minutes.
Further, these doses span the concentrations found in plasma during efficacy studies in rodents. Subsequently, microscope images appeared to show cell blebbing and fragmentation shortly after application of BCN057 indicating possible apoptosis. […] Blebbing and cell fragmentation was noted within 20 min of incubation with drug (as shown with the arrows). Cell fragmentation was seen between 20-30 minutes after exposure to the drug.

Data set [4] deals with c-Jun. As to the kind of experiment: Western blot of Phospho-c-Jun (T-91/93) in Panc-1 cells. The format is cell-based, human. Here is the method: Western Blot: Cells were harvested and lysed in cell lysis buffer on ice for 15 minutes and the lysate was centrifuged at 13,000 rpm at 4° C. for 10 minutes. The supernatant was transferred into a new tube for BCA protein quantification assay (Thermo Fisher Scientific) and the samples were normalized. 3× loading buffer (Cell Signaling) was added the protein sample and boiled for 5 minutes. The samples were used for SDS-PAGE analysis and transferred to nitrocellulose membrane. The membrane was blocked with 5% BSA at room temperature for 1 hour and incubated with primary antibody at 4° C. overnight. The membrane was washed with 1×TBST 5 minutes for 3 times and incubated with horseradish peroxidase-conjugated secondary antibody for 1 hour at room temperature. The protein was visualized by SuperSignal West Pico Stable Peroxide Solution (Thermo Fisher Scientific). The blot was visualized by chemiluminescence using a BioRad Versadoc Imaging System. Phosphorylation at T 91/93 in c-Jun was measured as a function of total c-Jun. Significant phosphorylation at T 91/93 was observed which has been reported to be associated with the activation of c-Jun's pro-apoptotic activity. […] FIG. 4A is a western blot of Phospho-c-Jun (T-91/93). […] Phosphorylation of c-Jun at T-91/93 is known to induce apoptosis. Total c-Jun protein level was unchanged. […]
On the technique in general: A western blot detects proteins with antibodies after separation by electrophoresis.

For data set [5], the system named is LGR5 and BMI1 in Panc-1 cells. The data set can be described thus: qPCR of stem cell markers LGR5 and BMI1 in Panc-1 cells. In kind it is cell-based, human. The following applies: 10 μm. On the procedure: QPCR: To compare the mRNA levels of BMI1 and LGR5 target genes in Panc-1 cells treated with BCN057 or vehicle. Quantitative PCR (qPCR) was used to measure the expression of the stem cell markers LGR5, and BMI1 which was detected by real-time PCR using the primer pairs listed in Table 1. Total RNA was extracted using TRIzol kit (Invitrogen, CA, USA)
Primers used for qPCR of LGR5 and BMI1 in pancreatic cancer cells Panc-1 treated with 10 μM of BCN057 or vehicle.
Others have implemented BMI1 as a key contributor to chemoresistance and invasiveness which is measurable in Panc-1.
A general note: Real-time PCR tracks product formation cycle by cycle.

The subject of data set [6] is Bax, BCl-2, Akt-1 and Caspase-3 in Panc-1 cells. As to the kind of experiment: qPCR of pro apoptosis and anti-apoptosis markers. In kind it is cell-based, human. The following applies: 1-hour post treatment. From the text: FIG. 2C is a histogram of the results of qPCR analysis of pro apoptosis and anti-apoptosis markers in Panc-1 cells.
Data set [7] can be described thus: Solubility in aqueous formulations. The conditions noted are these: 30 wt % Captisol (SBE-beta-CD) and 100 mM MSA. In kind it is physicochemical.
Data set [8] concerns Panc-1 cells. As to the kind of experiment: RealTime-Glo Annexin V Apoptosis and Necrosis Assay. In kind it is cell-based, human. The following applies: serial dilutions, 10 minutes to 6 hours. Here is the method: To validate the involvement of apoptosis in BCN057 induced cell death, the Panc1 cells with/without BCN057 were subjected to Anexin V staining. Anexin V staining was performed up to 6 hours and measured as a function of dose response of BCN057. […] FIG. 2B is a graph of Annexin V Apoptosis and Necrosis Assay in Panc-1 cells. Panc-1 cells were exposed to serial dilutions of BCN057 in the presence or absence of the RealTime-Glo™ Annexin V Apoptosis and Necrosis Assay Reagent. The plate was incubated at 37° C./5% CO2 and luminescence (Annexin V binding) was measured over a period of six hours. […] Apoptosis appeared to increase with increasing concentrations of BCN057.

Data set [9] has as its system KRASG13R mutant MC38 tumor cell line. The following applies: cited from earlier work.
In data set [10] the test system is irradiated mouse T-lymphocytes. The data set can be described thus: In vitro viability assay on irradiated T-lymphocytes. In kind it is cell-based. The conditions noted are these: T-lymphocyte. On the procedure: FIG. 7A is a western blot showing PD-1 expression on human T-lymphocytes co-cultured with Panc-1 cells with no drug (vehicle) or 1, 6 and 12 hours with BCN057. FIG. 7B is a graph showing that the inhibition of GSK3b induces survival of Lymphocytes when exposed to radiation.
FIG. 8 is western blot showing PDL-1 expression (red arrow) on Panc-1 cells co cultured with human T-lymphocytes with no drug (vehicle) or 2.5, 5, 7.5 and 10 hrs. with BCN057. […] In a separate study using mouse T-lymphocytes, 2Gy radiation was used to induce apoptosis with increasing amounts of BCN057.

A word on the EC50: it is the midpoint of the concentration-response curve. As for `COc1ccc2cc(-c3nc4ccc(C)cn4c3NCc3ccco3)c(=O)[nH]c2c1` [BCN057, 3-[(Furan-2-ylmethyl)-amino]-2-(7-methoxy-2-oxo-1,2-dihydro-quinolin-3-yl)-6-methyl-imidazo[1,2-a]pyridin-1-ium], the “c-Jun pro-apoptotic activity (T 91/93 phosphorylation)” value in data set [1] is reported as “not found to be induced”. Moreover, in data set [2], the “Lgr5+ve ISCs in jejunal section” value was “significant presence of Lgr5+ve ISCs”. Moreover, in [3], the “Time at which cell fragmentation was seen after exposure” value was in the range of 20 to 30 min; the “Time to blebbing and cell fragmentation” value is recorded as no more than 20 min. For the same compound, in data set [4] (KRAS mutant Panc-1 cells, within 20 minutes after drug treatment), the “c-Jun phosphorylation at T-91/93” value is recorded as “significantly increases JNK dependent phosphorylation”. In addition, the “Total c-Jun protein level” value in data set [4] (Panc-1 cells) is recorded as “unchanged”. The “Abundance of LGR5 and BMI1 cell populations” value in data set [5] is “no significant increase in the abundance”. Also, in [6], the Akt-1 expression result is “did not affect”, the Bax gene expression entry was “induces expression”, the Bcl2 gene expression result is recorded as “inhibited” and the Caspase-3 expression result is recorded as “did not affect”. The Solubility result in data set [7] was “excellent solubility at up to pH 4.1 or higher”. Further, the “Apoptosis (Annexin V binding, luminescence)” value in data set [8] was “Dose and time dependent increase in apoptosis”. Also, the Tolerated radiation dose result in [9] (BCN057 with radiation treatment versus radiation alone) is reported as “able to tolerate much higher radiation doses”. The Tumor burden entry in [9] (mice receiving BCN057 versus control) is reported as “significantly lower tumor burden than control”. Also, the response in data set [10] (light or radiation study, viability of irradiated mouse T-lymphocytes) was half-maximal at 5.34 µM (EC50). In [10] (preservation of mouse T-lymphocytes, 2Gy radiation), the EC50 was 5.34 µM.
